Results as given in patent US20230374015A1, “INHIBITORS OF FIBROBLAST GROWTH FACTOR RECEPTOR KINASES” (Kinnate Biopharma Inc., priority 2020, published 2023).

These molecules were tested against FGFR2 (Homo sapiens, UniProt P21802) (assay: FGFR2 Kinase Protocol - Condition 1 (Reaction Biology HotSpot radiometric kinase assay)). Details: 20-min incubation of compound with kinase before ATP; poly[Glu:Tyr] (4:1) 0.2 mg/ml; ATP 100 micromolar; 2 hr room temperature.
Assay type: biochemical
Description: Example 1: FGFR2 Kinase Protocol—Condition 1
The Reaction Biology HotSpot assay platform (http://www.reactionbiology.com) was used to measure kinase/inhibitor interactions as described previously (Anastassiadis et al., 2011). In brief, for each reaction, kinase and substrate were mixed in a buffer containing 20 mM HEPES (pH 7.5), 10 mM MgCl2, 1 mM EGTA, 0.02% Brij35, 0.02 mg/mL BSA, 0.1 mM Na3VO4, 2 mM DTT, and 1% DMSO. All compounds were in powder form and freshly solubilized in DMSO for assays. Compounds were then added to each reaction mixture via acoustic dispense using an ECHO 550 nanoliter dispenser. For Human FGFR2 wildtype testing, a peptide substrate, poly[Glu:Tyr] (4:1) was used to promote the reaction at a concentration of 0.2 mg/ml. For Human FGFR2 (V564F) testing, a peptide substrate, poly[Glu:Tyr] (4:1) was used to promote the reaction at a concentration of 0.2 mg/ml. ATP concentration for all assays was maintained at 100 micromolar. Compounds were tested in 10-dose IC50 mode with a 3-fold serial dilution. After a 20-min incubation, ATP (Sigma-Aldrich, St. Louis, MO 63178) and [g33P] ATP (specific activity 10 microCi/microliter) purchased at PerkinElmer (Boston, MA, 02118 Cat #BLU 003H250UC) were added at a final total concentration of […]. Reactions were carried out at room temperature for 2 hr and spotted onto P81 ion exchange cellulose chromatography paper (Reaction Biology). Filter paper was washed in 0.75% phosphoric acid to remove unincorporated ATP. The percent remaining kinase activity relative to a vehicle-containing (DMSO) kinase reaction was calculated for each kinase/inhibitor pair. IC50 values were calculated using Dotmatics Knowledge Solutions Studies curve fitting (Dotmatics, Bishops Stortford, UK, CM23).

Sequence of FGFR2 (P21802 22-821): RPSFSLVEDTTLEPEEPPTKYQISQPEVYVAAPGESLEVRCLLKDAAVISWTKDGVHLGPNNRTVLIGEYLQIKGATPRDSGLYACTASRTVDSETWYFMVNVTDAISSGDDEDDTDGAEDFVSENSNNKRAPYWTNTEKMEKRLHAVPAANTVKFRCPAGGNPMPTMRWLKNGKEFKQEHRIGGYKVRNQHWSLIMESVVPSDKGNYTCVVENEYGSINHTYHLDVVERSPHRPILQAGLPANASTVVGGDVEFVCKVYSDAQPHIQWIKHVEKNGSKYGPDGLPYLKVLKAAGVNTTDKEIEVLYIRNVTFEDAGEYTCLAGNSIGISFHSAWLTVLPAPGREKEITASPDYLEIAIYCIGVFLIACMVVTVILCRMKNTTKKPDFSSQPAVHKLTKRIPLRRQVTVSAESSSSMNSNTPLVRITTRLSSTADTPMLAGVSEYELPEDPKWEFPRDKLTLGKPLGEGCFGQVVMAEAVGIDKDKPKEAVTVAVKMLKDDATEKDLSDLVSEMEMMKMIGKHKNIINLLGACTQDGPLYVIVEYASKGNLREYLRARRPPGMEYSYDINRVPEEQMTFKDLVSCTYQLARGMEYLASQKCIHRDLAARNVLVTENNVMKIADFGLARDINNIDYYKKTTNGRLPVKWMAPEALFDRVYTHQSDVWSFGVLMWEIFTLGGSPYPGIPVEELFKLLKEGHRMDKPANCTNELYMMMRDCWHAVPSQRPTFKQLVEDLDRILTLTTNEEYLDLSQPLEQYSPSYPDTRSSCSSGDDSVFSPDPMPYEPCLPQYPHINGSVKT

| Structure (SMILES) | IC50 |
| --- | --- |
| C=CC(=O)N1C[C@@H](n2nc(C#Cc3ccc4[nH]c(C)nc4c3)c3c(N)ncnc32)C[C@@H]1COC [Example 1, 1-((2R,4S)-4-(4-amino-3-((2-methyl-1H-benzo[d]imidazol-5-yl)ethynyl)-1H-pyrazolo[3,4-d]pyrimidin-1-yl)-2-(methoxymethyl)pyrrolidin-1-yl)prop-2-en-1-one] | ≤ 100 nM |
| C=CC(=O)N1C[C@@H](n2nc(C#Cc3ccc4[nH]ncc4c3)c3c(N)ncnc32)C[C@@H]1COC [Example 2, 1-((2R,4S)-4-(3-((1H-indazol-5-yl)ethynyl)-4-amino-1H-pyrazolo[3,4-d]pyrimidin-1-yl)-2-(methoxymethyl)pyrrolidin-1-yl)prop-2-en-1-one] | ≤ 100 nM |
| C=CC(=O)N1C[C@@H](n2nc(C#Cc3ccc4nc(C)n(C)c4c3)c3c(N)ncnc32)C[C@@H]1COC [Example 4, 1-((2R,4S)-4-(4-amino-3-((1,2-dimethyl-1H-benzo[d]imidazol-6-yl)ethynyl)-1H-pyrazolo[3,4-d]pyrimidin-1-yl)-2-(methoxymethyl)pyrrolidin-1-yl)prop-2-en-1-one] | ≤ 100 nM |
| C=CC(=O)N1C[C@@H](n2nc(C#Cc3ccc4[nH]cnc4c3)c3c(N)ncnc32)C[C@@H]1COC [Example 5, 1-((2R,4S)-4-(3-((1H-benzo[d]imidazol-5-yl)ethynyl)-4-amino-1H-pyrazolo[3,4-d]pyrimidin-1-yl)-2-(methoxymethyl)pyrrolidin-1-yl)prop-2-en-1-one] | ≤ 100 nM |
| C=CC(=O)N1C[C@@H](n2nc(C#Cc3ccc4c(c3)ncn4C)c3c(N)ncnc32)C[C@@H]1COC [Example 6, 1-((2R,4S)-4-(4-amino-3-((1-methyl-1H-benzo[d]imidazol-5-yl)ethynyl)-1H-pyrazolo[3,4-d]pyrimidin-1-yl)-2-(methoxymethyl)pyrrolidin-1-yl)prop-2-en-1-one] | ≤ 100 nM |
| C=CC(=O)N1CC[C@H](n2nc(C#Cc3ccc4[nH]c(C)nc4c3)c3c(N)ncnc32)C1 [Example 7, (S)-1-(3-(4-amino-3-((2-methyl-1H-benzo[d]imidazol-5-yl)ethynyl)-1H-pyrazolo[3,4-d]pyrimidin-1-yl)pyrrolidin-1-yl)prop-2-en-1-one] | ≤ 100 nM |
| C=CC(=O)N1C[C@@H](n2cc(C#Cc3ccc4nc(C)[nH]c4c3)c3c(N)ncnc32)C[C@@H]1COC [Example 8, 1-[(2R,4S)-4-[4-amino-5-[2-(2-methyl-3H-1,3-benzodiazol-5-yl)ethynyl]pyrrolo[2,3-d]pyrimidin-7-yl]-2-(methoxymethyl)pyrrolidin-1-yl]prop-2-en-1-one] | ≤ 100 nM |
| C=CC(=O)N1C[C@@H](n2nc(C#Cc3ccc4ncn(C)c4c3)c3c(N)ncnc32)C[C@@H]1COC [Example 9, 1-((2R,4S)-4-(4-amino-3-((1-methyl-1H-benzo[d]imidazol-6-yl)ethynyl)-1H-pyrazolo[3,4-d]pyrimidin-1-yl)-2-(methoxymethyl)pyrrolidin-1-yl)prop-2-en-1-one] | 100 to 1000 nM |
| C=CC(=O)N1C[C@@H](n2nc(C#Cc3ccc4[nH]nnc4c3)c3c(N)ncnc32)C[C@@H]1COC [Example 10, 1-((2R,4S)-4-(3-((1H-benzo[d][1,2,3]triazol-5-yl)ethynyl)-4-amino-1H-pyrazolo[3,4-d]pyrimidin-1-yl)-2-(methoxymethyl)pyrrolidin-1-yl)prop-2-en-1-one] | ≤ 100 nM |
| C=CC(=O)N1CC[C@H](n2cc(C#Cc3ccc4[nH]c(C)nc4c3)c3c(N)ncnc32)C1 [Example 11, (S)-1-(3-(4-amino-5-((2-methyl-1H-benzo[d]imidazol-5-yl)ethynyl)-7H-pyrrolo[2,3-d]pyrimidin-7-yl)pyrrolidin-1-yl)prop-2-en-1-one] | ≤ 100 nM |
| C=CC(=O)N1C[C@@H](n2nc(C#Cc3c(F)cc4nc(C)n(C)c4c3F)c3c(N)ncnc32)C[C@@H]1COC [Example 13, 1-((2R,4S)-4-(4-amino-3-((5,7-difluoro-1,2-dimethyl-1H-benzo[d]imidazol-6-yl)ethynyl)-1H-pyrazolo[3,4-d]pyrimidin-1-yl)-2-(methoxymethyl)pyrrolidin-1-yl)prop-2-en-1-one] | ≤ 100 nM |
| C=CC(=O)N1C[C@@H](n2nc(C#Cc3ccc4cn[nH]c4c3)c3c(N)ncnc32)C[C@@H]1COC [Example 14, 1-((2R,4S)-4-(3-((1H-indazol-6-yl)ethynyl)-4-amino-1H-pyrazolo[3,4-d]pyrimidin-1-yl)-2-(methoxymethyl)pyrrolidin-1-yl)prop-2-en-1-one] | ≤ 100 nM |
| C=CC(=O)N1C[C@@H](n2nc(C#Cc3ccc4c(c3)nc(C)n4C3CC3)c3c(N)ncnc32)C[C@@H]1COC [Example 15, 1-((2R,4S)-4-(4-amino-3-((1-cyclopropyl-2-methyl-1H-benzo[d]imidazol-5-yl)ethynyl)-1H-pyrazolo[3,4-d]pyrimidin-1-yl)-2-(methoxymethyl)pyrrolidin-1-yl)prop-2-en-1-one] | ≤ 100 nM |
| C=CC(=O)N1C[C@@H](n2nc(C#Cc3ccc4c(c3)nc(C)n4C3CC3)c3c(N)nccc32)C[C@@H]1COC [Example 17, 1-((2R,4S)-4-(4-amino-3-((1-cyclopropyl-2-methyl-1H-benzo[d]imidazol-5-yl)ethynyl)-1H-pyrazolo[4,3-c]pyridin-1-yl)-2-(methoxymethyl)pyrrolidin-1-yl)prop-2-en-1-one] | ≤ 100 nM |
| C=CC(=O)N1C[C@@H](n2nc(C#Cc3c(F)cc4nc(C)[nH]c4c3F)c3c(N)nccc32)C[C@@H]1COC [Example 18, 1-((2R,4S)-4-(4-amino-3-((5,7-difluoro-2-methyl-1H-benzo[d]imidazol-6-yl)ethynyl)-1H-pyrazolo[4,3-c]pyridin-1-yl)-2-(methoxymethyl)pyrrolidin-1-yl)prop-2-en-1-one] | ≤ 100 nM |
| C=CC(=O)N1C[C@@H](n2nc(C#Cc3ccc4c(c3)ncn4C)c3c(N)nccc32)C[C@@H]1COC [Example 19, 1-((2R,4S)-4-(4-amino-3-((1-methyl-1H-benzo[d]imidazol-5-yl)ethynyl)-1H-pyrazolo[4,3-c]pyridin-1-yl)-2-(methoxymethyl)pyrrolidin-1-yl)prop-2-en-1-one] | ≤ 100 nM |
| C=CC(=O)N1C[C@@H](n2nc(C#Cc3ccc4c(c3)nc(C)n4CC)c3c(N)ncnc32)C[C@@H]1COC [Example 20, 1-((2R,4S)-4-(4-amino-3-((1-ethyl-2-methyl-1H-benzo[d]imidazol-5-yl)ethynyl)-1H-pyrazolo[3,4-d]pyrimidin-1-yl)-2-(methoxymethyl)pyrrolidin-1-yl)prop-2-en-1-one] | ≤ 100 nM |
| C=CC(=O)N1C[C@@H](n2nc(C#Cc3ccc4c(c3)nc(C)n4CC)c3c(N)nccc32)C[C@@H]1COC [Example 21, 1-((2R,4S)-4-(4-amino-3-((1-ethyl-2-methyl-1H-benzo[d]imidazol-5-yl)ethynyl)-1H-pyrazolo[4,3-c]pyridin-1-yl)-2-(methoxymethyl)pyrrolidin-1-yl)prop-2-en-1-one] | ≤ 100 nM |
| C=CC(=O)N1C[C@@H](n2nc(C#Cc3ccc4[nH]c(C)nc4c3)c3c(N)nccc32)C[C@@H]1COC [Example 22, 1-((2R,4S)-4-(4-amino-3-((2-methyl-1H-benzo[d]imidazol-5-yl)ethynyl)-1H-pyrazolo[4,3-c]pyridin-1-yl)-2-(methoxymethyl)pyrrolidin-1-yl)prop-2-en-1-one] | ≤ 100 nM |
| C=CC(=O)N1C[C@@H](n2nc(C#Cc3ccc4c(c3)ncn4CC)c3c(N)nccc32)C[C@@H]1COC [Example 23, 1-((2R,4S)-4-(4-amino-3-((1-ethyl-1H-benzo[d]imidazol-5-yl)ethynyl)-1H-pyrazolo[4,3-c]pyridin-1-yl)-2-(methoxymethyl)pyrrolidin-1-yl)prop-2-en-1-one] | ≤ 100 nM |
| C=CC(=O)N1C[C@@H](n2nc(C#Cc3ccc4c(c3)ncn4C3CC3)c3c(N)nccc32)C[C@@H]1COC [Example 24, 1-((2R,4S)-4-(4-amino-3-((1-cyclopropyl-1H-benzo[d]imidazol-5-yl)ethynyl)-1H-pyrazolo[4,3-c]pyridin-1-yl)-2-(methoxymethyl)pyrrolidin-1-yl)prop-2-en-1-one] | ≤ 100 nM |
| C=CC(=O)N1C[C@@H](n2nc(C#Cc3ccc4c(c3)nc(C)n4C)c3c(N)nccc32)C[C@@H]1COC [Example 25, 1-((2R,4S)-4-(4-amino-3-((1,2-dimethyl-1H-benzo[d]imidazol-5-yl)ethynyl)-1H-pyrazolo[4,3-c]pyridin-1-yl)-2-(methoxymethyl)pyrrolidin-1-yl)prop-2-en-1-one] | ≤ 100 nM |
| C=CC(=O)N1C[C@@H](n2nc(C#Cc3c(F)cc4c(ncn4C)c3F)c3c(N)nccc32)C[C@@H]1COC [Example 26, 1-((2R,4S)-4-(4-amino-3-((4,6-difluoro-1-methyl-1H-benzo[d]imidazol-5-yl)ethynyl)-1H-pyrazolo[4,3-c]pyridin-1-yl)-2-(methoxymethyl)pyrrolidin-1-yl)prop-2-en-1-one] | ≤ 100 nM |
